Legend:
NCI-H226 cells = assay: Proliferation and cell viability assay, Cell Titer One; format: cell-based, human; conditions: Cell Titer One assay, 6 days
Protocol: (§1) Cell proliferation of a TEAD dependent NF2-null mesothelioma cell line, NCI-H226 was assayed using two different protocols. Results were confirmed in two different TEAD-non-dependent lung cancer cell lines, H23 and H28, were used as non-responsive controls, as indicated:
(§2) b) Cell Titer One (Promega, #G3582). The effect of the TEAD inhibitors disclosed herein on cell proliferation was also determined using the Promega Substrate Cell Titer Aqueous One Solution Reagent. The TEAD inhibitors were evaluated for the effects on cell proliferation responder (H226) and non-responder negative control cancer cell lines (CAMA1, H28), as well as non-transformed normal human cells (HUVEC, NHDF). Dissociated cells were resuspend in media (depending on cell line, either in DMEM, RPMI, or EMEM all with 10% FBS, with gentamicin as an antibiotic). Cells were seeded at 100 μL/well at 750 cells per well in 96-well plates and allowed to settle and attach. After an incubation of 24 hrs (37° C., 5% CO2, humidified incubator), 100 μL of test compound-containing media was added. A dilution series of 2000× concentrated stock of test compounds was prepared in DMSO, for final concentrations from 0.1 to 10,000 nM. After addition of test compound-containing media, cells were incubated for 6 days at 37° C., 5% CO2, humidified incubators). To measure cell density, 20 μL of Promega Substrate Cell Titer 96 Aqueous One Solution Reagent (Promega, #G3582) to each well was added according to the manufacturer's instructions. Plates were incubated at 37° C. for usually 3-8 hrs, to reach in the control cells (without compound) an OD of 1.5 at 490 nm. The OD was measured using Vmax [Molecular Devices] spectrophotometer plate reader. Media only-wells were used as background controls and cell densities normalized to DMSO vehicle control. EC50 were taken as the concentration achieving 50% of maximal growth inhibition.
For IC50 and EC50 data “A” indicates a value of less than 0.2 μM; the symbol “B” indicates a value in the range of from 0.2 μM up to 1 μM; and the symbol “C” indicates a value of greater than 1 μM. ND: no data.

NCI-H28 cells = assay: as above; format: cell-based; conditions: Homo sapiens, NCI-H28, 144 h; Cell Titer One assay, non-responder, 6 days
Protocol: as §1
as §2, with “To measure cell density, 20 μL of Promega Substrate Cell Titer 96 Aqueous One Solution Reagent (Promega, #G3582) to each well was added according to the manufacturer's instructions. Plates were incubated at 37° C. for usually 3-8 hrs, to reach in the control cells (without compound) an OD of 1.5 at 490 nm.” left out, “Media only-wells were used as background controls and cell densities normalized to DMSO vehicle control. EC50 were taken as the concentration achieving 50% of maximal growth inhibition.” left out

MSTO-211H xenograft [1] = assay: Mouse xenograft MSTO-211H tumors, study part 3; format: in vivo, BALB/c nude mice; conditions: PO
Excerpt: (§3) This study evaluated the in vivo anti-tumor efficacy of test compounds in BALB/c nude mice for treatment of MSTO-211H xenograft of lung cancer.
(§4) • Species: Mus Musculus • Strain: BALB/c nude • Age: 6-8 weeks • Sex: female • Body weight: 18-22 g • Number of animals inoculated with tumor: 80 mice • Number of animals enrolled in the treatment: 36 mice • Number of unenrolled animals: 44 mice • Animal supplier: Beijing Vital River Biotechnology Experimental Animal Co. Ltd Certification number: 20170011010591
(§5) The MSTO-211H tumor cells were maintained in RPMI 1640 medium supplemented with 10% Fetal bovine serum and 1% Antibiotic-Antimycotic at 37° C. in an atmosphere of 5% CO2 in air. The tumor cells were routinely subcultured twice weekly by trypsin-EDTA. The cells growing in an exponential growth phase with 95% cell survival or above were harvested, and counted for tumor inoculation.
(§6) Each mouse was inoculated subcutaneously at the right flank with MSTO-211H tumor cells (5×10^6+50% matrigel/0.2 mL) for tumor development. Animals were marked with earrings with unique 6 significant figure number for identification. The treatments of part 1 were started on day 5 after cell inoculation when the average tumor volume reached 181 mm^3. The treatments of part 2 were started on day 16 after cell inoculation when the average tumor volume reached 254 mm^3. The treatments of part 3 were started on day 33 after cell inoculation when the average tumor volume reached 969 mm^3.
(§7) The major endpoint was to determine if the tumor growth could be delayed. Tumor volume was measured twice a week in two dimensions using a caliper, and the volume was expressed in mm^3 using the formula: V=0.5 a×b^2 where a and b are the long and short diameters of the tumor, respectively. The tumor size was then used for calculations of T/C value. The TGI value (in percent) or the T/C value (in percent) is an indication of antitumor effectiveness; T and C are the mean tumor volumes or tumor weights of the treated and control groups, respectively, on a given day.
(§8) TGI was calculated for each group using the formula: TGI (%)=[1−(Ti−T0)/(Vi−V0)]×100; Ti is the average tumor volume of a treatment group on a given day, T0 is the average tumor volume of the treatment group on the day of treatment start, Vi is the average tumor volume of the vehicle control group on the same day with Ti, and V0 is the average tumor volume of the vehicle group on the day of treatment start.
(§9) Relative T/C (%)=TRTV/CRTV×100 (RTV (%)=Vt/V0×100, Vt is the average tumor volume on a given day, V0 is the average tumor volume on the first day of treatment. TRTV is the RTV of a treatment group, and the CRTV is the RTV of the vehicle control group.)
The antitumor effectiveness of part 3 study was analyzed on PG-D13 when vehicle group reached 1791 mm^3.
(§10) Summary statistics, including mean and the standard error of the mean (SEM), were provided for the tumor volume of each group at each time point.
(§11) Statistical analysis of difference in tumor volume among the groups was conducted on the data obtained at the end of the study.
(§12) One-tailed T test was performed to compare tumor volumes between two groups. All data are analyzed using GraphPad Prism 6.0. p<0.05 is considered to be statistically significant.

MSTO-211H xenograft [2] = assay: Mouse xenograft MSTO-211H tumors, study part 2; format: in vivo, BALB/c nude mice; conditions: PO
Excerpt: as §3, §4, §5, §6, §7, §8, §9
The antitumor effectiveness of part 2 study was analyzed on PG-D30 when vehicle group reached 738 mm^3.
as §10, §11, §12

[3] = part 3, day 13, 12.5 mg/kg, BID
[4] = part 2, day 30, 12.5 mg/kg, BID

Cn1cnc(-c2cc([C@@]3(C)CCNC3=O)ccc2Nc2ccc(C(F)(F)F)cc2)c1 (single isomer, unassigned) [Compound 5, 3-methyl-3-(3-(1-methyl-1H-imidazol-4-yl)-4-((4-(trifluoromethyl)phenyl)amino)phenyl)pyrrolidin-2-one]
IC50 (NCI-H226 cells; Homo sapiens, NCI-H226, 144 h): < 200 nM
IC50 (NCI-H28 cells): > 1000 nM

Cn1nnc(-c2cc([C@]3(C)CCNC3=O)ccc2Nc2ccc(C(F)(F)F)cc2)n1 (stereo in doubt) [Compound 20, 3-methyl-3-(3-(2-methyl-2H-tetrazol-5-yl)-4-((4-(trifluoromethyl)phenyl)amino)phenyl) pyrrolidin-2-one]
Tumor size (MSTO-211H xenograft [1]; part 3, day 0, 12.5 mg/kg, BID): 963 ± 136 mm^3
Tumor size (MSTO-211H xenograft [1]; part 3, day 3, 12.5 mg/kg, BID): 740 ± 122 mm^3
Tumor size (MSTO-211H xenograft [1]; part 3, day 6, 12.5 mg/kg, BID): 591 ± 61 mm^3
Tumor size (MSTO-211H xenograft [1]; part 3, day 10, 12.5 mg/kg, BID): 444 ± 36 mm^3
T/C (MSTO-211H xenograft [1]; [3]): 18.94%
TGI (MSTO-211H xenograft [1]; [3]): 177.56%
Tumor size (MSTO-211H xenograft [1]; [3]): 339 ± 51 mm^3
Tumor Volume (MSTO-211H xenograft [1]; part 3, day 13, 12.5 mg/kg, BID (Table 18)): 339 ± 51 mm^3
Tumor size (MSTO-211H xenograft [2]; part 2, day 0, 12.5 mg/kg, BID): 254 ± 30 mm^3
Tumor size (MSTO-211H xenograft [2]; part 2, day 2, 12.5 mg/kg, BID): 249 ± 37 mm^3
Tumor size (MSTO-211H xenograft [2]; part 2, day 6, 12.5 mg/kg, BID): 160 ± 39 mm^3
Tumor size (MSTO-211H xenograft [2]; part 2, day 9, 12.5 mg/kg, BID): 116 ± 36 mm^3
Tumor size (MSTO-211H xenograft [2]; part 2, day 12, 12.5 mg/kg, BID): 80 ± 13 mm^3
Tumor size (MSTO-211H xenograft [2]; part 2, day 16, 12.5 mg/kg, BID): 75 ± 10 mm^3
Tumor size (MSTO-211H xenograft [2]; part 2, day 20, 12.5 mg/kg, BID): 78 ± 14 mm^3
Tumor size (MSTO-211H xenograft [2]; part 2, day 23, 12.5 mg/kg, BID): 91 ± 10 mm^3
Tumor size (MSTO-211H xenograft [2]; part 2, day 27, 12.5 mg/kg, BID): 96 ± 6 mm^3
T/C (MSTO-211H xenograft [2]; [4]): 22.24%
TGI (MSTO-211H xenograft [2]; [4]): 118.44%
Tumor size (MSTO-211H xenograft [2]; [4]): 164 ± 15 mm^3
Tumor Volume (MSTO-211H xenograft [2]; part 2, day 30, 12.5 mg/kg, BID (Table 17)): 164 ± 15 mm^3

Cn1cnc(-c2cc(C3(C)NC(=O)NC3=O)ccc2Nc2ccc(C(F)(F)F)cc2)c1 (single isomer, unassigned) [Compound 15, 5-methyl-5-(3-(1-methyl-1H-imidazol-4-yl)-4-((4-(trifluoromethyl)phenyl)amino)phenyl)imidazolidine-2,4-dione]
IC50 (NCI-H226 cells): < 200 nM
